Measurements taken from PubChem BioAssay AID248 (DTP/NCI, 2004).
Several values for one entry are separate records, joined by “and”; a condition that tells them apart may be missing. Equal entries are not always repeated. Toxic doses and inconclusive results are not listed. No stated cut-off is given here; in the data, active means T/C of 150% or more; inactive means T/C below 125%.

System: L1210 leukemia ip in BDF1 mice, survival T/C
Test: NCI In Vivo Anticancer Drug Screen. Data for tumor model L1210 Leukemia (intraperitoneal) in B6D2F1 (BDF1) mice
Conditions: endpoint: mean survival time, higher = longer survival
Procedure, shortened: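 Antitumor effect is assessed in tumor-bearing animals. Survival in the compound arm is compared with a vehicle-dosed control arm and expressed as their quotient.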

[1] = dose: 100.0 mg/kg/injection, schedule: Q04DX003 (ip), vehicle: saline
[2] = dose: 200.0 mg/kg/injection, schedule: Q04DX003 (ip), vehicle: saline
[3] = dose: 400.0 mg/kg/injection, schedule: Q04DX003 (ip), vehicle: saline
[4] = dose: 25.0 mg/kg/injection, schedule: Q01DX009 (ip), vehicle: Klucel (hydroxypropylcellulose) (HPC)
[5] = dose: 50.0 mg/kg/injection, schedule: Q01DX009 (ip), vehicle: Klucel (hydroxypropylcellulose) (HPC)
[6] = dose: 100.0 mg/kg/injection, schedule: Q01DX009 (ip), vehicle: Klucel (hydroxypropylcellulose) (HPC)
[7] = dose: 100.0 mg/kg/injection, schedule: Q04DX003 (ip), vehicle: Klucel (hydroxypropylcellulose) (HPC)
[8] = dose: 200.0 mg/kg/injection, schedule: Q01DX009 (ip), vehicle: Klucel (hydroxypropylcellulose) (HPC)
[9] = dose: 200.0 mg/kg/injection, schedule: Q04DX003 (ip), vehicle: Klucel (hydroxypropylcellulose) (HPC)
[10] = dose: 400.0 mg/kg/injection, schedule: Q04DX003 (ip), vehicle: Klucel (hydroxypropylcellulose) (HPC)
[11] = dose: 50.0 mg/kg/injection, schedule: Q01DX009 (ip), vehicle: saline with Tween-80
[12] = dose: 100.0 mg/kg/injection, schedule: Q01DX009 (ip), vehicle: saline with Tween-80
[13] = dose: 100.0 mg/kg/injection, schedule: Q04DX003 (ip), vehicle: saline with Tween-80
[14] = dose: 200.0 mg/kg/injection, schedule: Q04DX003 (ip), vehicle: saline with Tween-80
[15] = dose: 400.0 mg/kg/injection, schedule: Q04DX003 (ip), vehicle: saline with Tween-80
[16] = dose: 100.0 mg/kg/injection, schedule: Q04DX002 (ip), vehicle: saline with Tween-80
[17] = dose: 200.0 mg/kg/injection, schedule: Q01DX009 (ip), vehicle: saline with Tween-80
[18] = dose: 400.0 mg/kg/injection, schedule: Q01DX009 (ip), vehicle: saline with Tween-80
[19] = dose: 100.0 mg/kg/injection, schedule: Q01DX009 (ip), vehicle: saline
[20] = dose: 200.0 mg/kg/injection, schedule: Q01DX009 (ip), vehicle: saline
[21] = dose: 400.0 mg/kg/injection, schedule: Q01DX009 (ip), vehicle: saline
[22] = dose: 100.0 mg/kg/injection, schedule: Q04DX003 (ip), vehicle: saline sonified
[23] = dose: 200.0 mg/kg/injection, schedule: Q04DX003 (ip), vehicle: saline sonified
[24] = dose: 400.0 mg/kg/injection, schedule: Q04DX003 (ip), vehicle: saline sonified

Measured: T/C

CCN(CC)CCCC(C)Nc1c2ccc(Cl)cc2nc2ccc(F)cc12 (centres undefined)
inactive: dose: 44.0 mg/kg/injection, schedule: Q01DX Z (ip), vehicle: saline 111 % of control | dose: 66.0 mg/kg/injection, schedule: Q01DX Z (ip), vehicle: saline 117 % of control | dose: 100.0 mg/kg/injection, schedule: Q01DX Z (ip), vehicle: saline 117 % of control

N#CCCNC(=O)c1ccccc1
inactive: dose: 100.0 mg/kg/injection, schedule: Q01DX001 (ip), vehicle: acetone 107 % of control | dose: 100.0 mg/kg/injection, schedule: Q01DX009 (ip), vehicle: acetone 90 % of control | [1] 103 % of control | dose: 200.0 mg/kg/injection, schedule: Q01DX001 (ip), vehicle: acetone 102 % of control | dose: 200.0 mg/kg/injection, schedule: Q01DX009 (ip), vehicle: acetone 92 % of control | [2] 94 % of control | dose: 400.0 mg/kg/injection, schedule: Q01DX001 (ip), vehicle: acetone 102 % of control | dose: 400.0 mg/kg/injection, schedule: Q01DX009 (ip), vehicle: acetone 90 % of control | [3] 101 % of control

CN(C)/N=N\N(C)C
inactive: [4] 98 % of control | [5] 103 % of control | [6] 101 % of control

BrC1C2CC3C1C3C2c1ccccc1 (centres undefined)
inactive: [6] 117 % of control | [7] 103 % of control | [8] 109 % of control | [9] 107 % of control | dose: 400.0 mg/kg/injection, schedule: Q01DX009 (ip), vehicle: Klucel (hydroxypropylcellulose) (HPC) 107 % of control | [10] 103 % of control

CC(=O)Oc1c(I)cc(I)cc1C(=O)Nc1ccc(Cl)cc1
inactive: [11] 94 % of control | [12] 87 % of control

CC(C)C(C=O)(CCN(C)Cc1ccccc1)c1cccc2ccccc12 (centres undefined)
inactive: [13] 93 % of control | [14] 92 % of control | [15] 100 % of control

COc1ccc(Cl)cc1NC(=O)OCC(Cl)(Cl)Cl
inactive: dose: 100.0 mg/kg/injection, schedule: Q01DX001 (ip), vehicle: saline with Tween-80 95 % of control | [12] 100 % of control and 102 % of control | [16] 93 % of control and 91 % of control | [13] 103 % of control | dose: 200.0 mg/kg/injection, schedule: Q01DX001 (ip), vehicle: saline with Tween-80 94 % of control | [17] 96 % of control and 115 % of control | dose: 200.0 mg/kg/injection, schedule: Q04DX002 (ip), vehicle: saline with Tween-80 94 % of control and 101 % of control | [14] 94 % of control | dose: 400.0 mg/kg/injection, schedule: Q01DX001 (ip), vehicle: saline with Tween-80 94 % of control | [18] 100 % of control and 91 % of control | dose: 400.0 mg/kg/injection, schedule: Q04DX002 (ip), vehicle: saline with Tween-80 97 % of control and 108 % of control | [15] 97 % of control

O=[N+]([O-])c1ccc(C=Nc2cc(Cl)ccc2Cl)s1
inactive: [13] 98 % of control | [14] 88 % of control

O=C1C(Br)C2CCC1C2C(=O)O (centres undefined)
inactive: [12] 103 % of control | [13] 87 % of control | [17] 89 % of control and 96 % of control | [14] 92 % of control | [18] 100 % of control and 94 % of control | [15] 101 % of control

CSCCC(NC(C)=O)C(=O)O (centres undefined)
inactive: [19] 99 % of control | [1] 94 % of control | [20] 86 % of control | [2] 91 % of control | [21] 96 % of control | [3] 91 % of control

O=C(NCO)NCO
inactive: dose: 75.0 mg/kg/injection, schedule: Q01DX001 (ip), vehicle: Klucel (hydroxypropylcellulose) (HPC) 95 % of control | dose: 150.0 mg/kg/injection, schedule: Q01DX001 (ip), vehicle: Klucel (hydroxypropylcellulose) (HPC) 93 % of control | dose: 300.0 mg/kg/injection, schedule: Q01DX001 (ip), vehicle: Klucel (hydroxypropylcellulose) (HPC) 97 % of control

COc1cc2ccc(CN3CCCC3C(=O)OCc3ccccc3)cc2cc1OC (centres undefined)
inactive: dose: 100.0 mg/kg/injection, schedule: Q01DX009 (ip), vehicle: saline sonified 100 % of control | [22] 95 % of control | dose: 200.0 mg/kg/injection, schedule: Q01DX009 (ip), vehicle: saline sonified 96 % of control | [23] 96 % of control | dose: 400.0 mg/kg/injection, schedule: Q01DX009 (ip), vehicle: saline sonified 91 % of control | [24] 96 % of control

CCOC(=O)C(=CN1CCCC1)C(=O)OCC
inactive: [19] 104 % of control | [13] 98 % of control | [20] 109 % of control | [14] 98 % of control | [21] 96 % of control | [15] 93 % of control

C=CCNC(=O)OCC
inactive: [13] 100 % of control | [14] 95 % of control | [15] 100 % of control

c1ccn(-c2nccs2)c1
inactive: [13] 103 % of control | [14] 113 % of control

Cc1ccc(NC(=O)OCCOc2ccc([N+](=O)[O-])cc2)c([N+](=O)[O-])c1
inactive: [5] 102 % of control | [6] 91 % of control | [7] 97 % of control | [8] 91 % of control | [9] 102 % of control | [10] 95 % of control

OC1C(OCc2ccccc2)OC(COCc2ccccc2)C(OC2OC(COCc3ccccc3)C(OCc3ccccc3)C(OCc3ccccc3)C2OCc2ccccc2)C1OCc1ccccc1 (centres undefined)
inactive: dose: 200.0 mg/kg/injection, schedule: Q01DX009 (ip), vehicle: alcohol 94 % of control | dose: 400.0 mg/kg/injection, schedule: Q01DX009 (ip), vehicle: alcohol 86 % of control

Cn1c(CO)cc2ccccc21
inactive: [12] 98 % of control | [13] 96 % of control | [17] 98 % of control | [14] 96 % of control | [18] 88 % of control | [15] 98 % of control

C1=C(c2ccccc2)N(C2CCCCC2)C(c2ccccc2)=CN1Cc1ccccc1
inactive: dose: 100.0 mg/kg/injection, schedule: Q04DX002 (ip), vehicle: Klucel (hydroxypropylcellulose) (HPC) 92 % of control | dose: 200.0 mg/kg/injection, schedule: Q04DX002 (ip), vehicle: Klucel (hydroxypropylcellulose) (HPC) 92 % of control

CCCCCP(=O)(CCCCC)CCCCC
inactive: dose: 25.0 mg/kg/injection, schedule: Q04DX002 (ip), vehicle: saline with Tween-80 100 % of control | dose: 50.0 mg/kg/injection, schedule: Q04DX002 (ip), vehicle: saline with Tween-80 94 % of control | [16] 98 % of control and 106 % of control

O=C(O)c1cc(C(=O)O)cc([N+](=O)[O-])c1
inactive: [11] 93 % of control | [12] 91 % of control | [13] 95 % of control | [14] 95 % of control

CC(NC(=O)NCCCl)C(O)c1ccccc1 (centres undefined)
inactive: dose: 20.0 mg/kg/injection, schedule: Q04DX003 (ip), vehicle: Klucel (hydroxypropylcellulose) (HPC) 103 % of control | dose: 40.0 mg/kg/injection, schedule: Q04DX003 (ip), vehicle: Klucel (hydroxypropylcellulose) (HPC) 96 % of control | dose: 80.0 mg/kg/injection, schedule: Q04DX003 (ip), vehicle: Klucel (hydroxypropylcellulose) (HPC) 102 % of control | [7] 100 % of control

Cc1cc(N(CCCOS(C)(=O)=O)CCCOS(C)(=O)=O)ccc1C=Nc1cc(Br)c(O)c(Br)c1
inactive: [12] 94 % of control | [13] 92 % of control | [17] 94 % of control | [14] 90 % of control | [18] 89 % of control | [15] 94 % of control

CNC(=S)N(C)C
inactive: [22] 114 % of control | [23] 103 % of control | [24] 103 % of control

CC(=O)OCC1OC([S][Sb]([CH3])[CH3])C(OC(C)=O)C(OC(C)=O)C1OC(C)=O (centres undefined)
inactive: dose: 12.5 mg/kg/injection, schedule: Q01DX009 (ip), vehicle: Klucel (hydroxypropylcellulose) (HPC) 96 % of control | [4] 102 % of control | [5] 93 % of control

O=C1OC2=C(c3ccccc3)C(=O)OC2=C1c1ccccc1
inactive: dose: 100.0 mg/kg/injection, schedule: Q01DX001 (ip), vehicle: saline 97 % of control | dose: 200.0 mg/kg/injection, schedule: Q01DX001 (ip), vehicle: saline 104 % of control | dose: 400.0 mg/kg/injection, schedule: Q01DX001 (ip), vehicle: saline 95 % of control
